Results as given in ChEMBL document CHEMBL4715697, “Synthesis and biological activity of benzamide DNA minor groove binders” (2016).

How the values were obtained:
Assay type in all cases: functional
KM12 = assay: Growth inhibition of human KM12 cells incubated for 48 hrs by sulforhodamine B assay
Hs-578T = assay: Growth inhibition of human Hs-578T cells assessed as cell growth at 0.1 uM incubated for 48 hrs by sulforhodamine B assay relative to control; conditions: read-out: Activity
T47D [1] = assay: Growth inhibition of human T47D cells assessed as cell growth at 100 uM incubated for 48 hrs by sulforhodamine B assay relative to control; conditions: read-out: Activity
MCF7 [2] = assay: Growth inhibition of human MCF7 cells assessed as cell growth at 1 uM incubated for 48 hrs by sulforhodamine B assay relative to control; conditions: read-out: Activity
CCRF-CEM = assay: Growth inhibition of human CCRF-CEM cells assessed as cell growth at 1 uM incubated for 48 hrs by sulforhodamine B assay relative to control; conditions: read-out: Activity
SN12C = assay: Growth inhibition of human SN12C cells assessed as cell growth at 0.1 uM incubated for 48 hrs by sulforhodamine B assay relative to control; conditions: read-out: Activity
LOX IMVI [3] = assay: Growth inhibition of human LOX IMVI cells incubated for 48 hrs by sulforhodamine B assay
UACC-62 = assay: Growth inhibition of human UACC-62 cells assessed as cell growth at 1 uM incubated for 48 hrs by sulforhodamine B assay relative to control; conditions: read-out: Activity
SF-539 = assay: Growth inhibition of human SF-539 cells assessed as cell growth at 100 uM incubated for 48 hrs by sulforhodamine B assay relative to control; conditions: read-out: Activity
UO-31 = assay: Growth inhibition of human UO-31 cells assessed as cell growth at 0.01 uM incubated for 48 hrs by sulforhodamine B assay relative to control; conditions: read-out: Activity
SF-268 [4] = assay: Growth inhibition of human SF-268 cells assessed as cell growth at 1 uM incubated for 48 hrs by sulforhodamine B assay relative to control; conditions: read-out: Activity
MDA-MB-231 = assay: Growth inhibition of human MDA-MB-231 cells assessed as cell growth at 100 uM incubated for 48 hrs by sulforhodamine B assay relative to control; conditions: read-out: Activity
OVCAR-5 = assay: Growth inhibition of human OVCAR-5 cells incubated for 48 hrs by sulforhodamine B assay
786-0 = assay: Growth inhibition of human 786-0 cells assessed as cell growth at 100 uM incubated for 48 hrs by sulforhodamine B assay relative to control; conditions: read-out: Activity
LOX IMVI [5] = assay: Growth inhibition of human LOX IMVI cells assessed as cell growth at 100 uM incubated for 48 hrs by sulforhodamine B assay relative to control; conditions: read-out: Activity
NCI-H460 = assay: Growth inhibition of human NCI-H460 cells assessed as cell growth at 0.01 uM incubated for 48 hrs by sulforhodamine B assay relative to control; conditions: read-out: Activity
HCT-116 = assay: Growth inhibition of human HCT-116 cells incubated for 48 hrs by sulforhodamine B assay
T47D [6] = assay: Growth inhibition of human T47D cells assessed as cell growth at 1 uM incubated for 48 hrs by sulforhodamine B assay relative to control; conditions: read-out: Activity
IGROV-1 = assay: Growth inhibition of human IGROV-1 cells assessed as cell growth at 0.01 uM incubated for 48 hrs by sulforhodamine B assay relative to control; conditions: read-out: Activity
EKVX [7] = assay: Growth inhibition of human EKVX cells incubated for 48 hrs by sulforhodamine B assay
NCI-H226 = assay: Growth inhibition of human NCI-H226 cells assessed as cell growth at 0.1 uM incubated for 48 hrs by sulforhodamine B assay relative to control; conditions: read-out: Activity
HT-29 [8] = assay: Growth inhibition of human HT-29 cells assessed as cell growth at 0.01 uM incubated for 48 hrs by sulforhodamine B assay relative to control; conditions: read-out: Activity
HT-29 [9] = assay: Growth inhibition of human HT-29 cells assessed as cell growth at 100 uM incubated for 48 hrs by sulforhodamine B assay relative to control; conditions: read-out: Activity
SW-620 = assay: Growth inhibition of human SW-620 cells incubated for 48 hrs by sulforhodamine B assay
EKVX [10] = assay: Growth inhibition of human EKVX cells assessed as cell growth at 0.1 uM incubated for 48 hrs by sulforhodamine B assay relative to control; conditions: read-out: Activity
SNB-75 = assay: Growth inhibition of human SNB-75 cells assessed as cell growth at 1 uM incubated for 48 hrs by sulforhodamine B assay relative to control; conditions: read-out: Activity
T47D [11] = assay: Growth inhibition of human T47D cells assessed as cell growth at 0.01 uM incubated for 48 hrs by sulforhodamine B assay relative to control; conditions: read-out: Activity
MDA-MB-435 = assay: Growth inhibition of human MDA-MB-435 cells incubated for 48 hrs by sulforhodamine B assay
MCF7 [12] = assay: Growth inhibition of human MCF7 cells assessed as cell growth at 0.01 uM incubated for 48 hrs by sulforhodamine B assay relative to control; conditions: read-out: Activity
RXF 393 = assay: Growth inhibition of human RXF 393 cells incubated for 48 hrs by sulforhodamine B assay
SF-268 [13] = assay: Growth inhibition of human SF-268 cells assessed as cell growth at 0.1 uM incubated for 48 hrs by sulforhodamine B assay relative to control; conditions: read-out: Activity
DU-145 = assay: Growth inhibition of human DU-145 cells assessed as cell growth at 0.1 uM incubated for 48 hrs by sulforhodamine B assay relative to control; conditions: read-out: Activity
NCI/ADR-RES = assay: Growth inhibition of human NCI/ADR-RES cells assessed as cell growth at 0.1 uM incubated for 48 hrs by sulforhodamine B assay relative to control; conditions: read-out: Activity
RPMI-8226 = assay: Growth inhibition of human RPMI-8226 cells assessed as cell growth at 0.1 uM incubated for 48 hrs by sulforhodamine B assay relative to control; conditions: read-out: Activity
[14] = read-out: LC50 (the source's name)
[15] = read-out: pLC50 (the source's name) (converted)

For `CC(=O)Nc1cc(CO[Si](C)(C)C(C)(C)C)cc(NC(=O)c2ccc(C(=O)Nc3cccc(NC(=O)CCCN(C)C)c3)cc2)c1`, the GI50 (KM12; read-out: GI50) was greater than 75 µM, the CC50 (KM12; [14]) was greater than 75 µM and the TGI (KM12; read-out: TGI) was greater than 75 µM. For the same molecule, the GI50 (KM12; read-out: pGI50 (converted)) was greater than 75.9 µM, the CC50 (KM12; [15]) was greater than 75.9 µM and the TGI (KM12; read-out: pTGI) was greater than 75.9 µM. For the same molecule, the growth at 0.1 µM (Hs-578T) was 121%, the growth at 100 µM (T47D [1]) was 58% and the growth at 1 µM (MCF7 [2]) was 101%. The growth at 1 µM (CCRF-CEM) was 98%, the growth at 0.1 µM (SN12C) was 95% and the GI50 (LOX IMVI [3]; read-out: GI50) was greater than 75 µM. For the same molecule, the LC50 (concentration giving 50% cell kill) (LOX IMVI [3]; read-out: LC50) was greater than 75 µM, the TGI (LOX IMVI [3]; read-out: TGI) was greater than 75 µM and the GI50 (LOX IMVI [3]; read-out: pGI50 (converted)) was greater than 75.9 µM. For the same molecule, the LC50 (concentration giving 50% cell kill) (LOX IMVI [3]; read-out: pLC50 (converted)) was greater than 75.9 µM, the TGI (LOX IMVI [3]; read-out: pTGI) was greater than 75.9 µM and the growth at 1 µM (UACC-62) was 99%. It also gave a growth at 100 µM (SF-539) of 88%, a growth at 0.01 µM (UO-31) of 83% and a growth at 1 µM (SF-268 [4]) of 101%. For the same molecule, the growth at 100 µM (MDA-MB-231) was 96%, the GI50 (OVCAR-5; read-out: GI50) was greater than 75 µM and the LC50 (OVCAR-5; read-out: LC50) was greater than 75 µM. The TGI (OVCAR-5; read-out: TGI) was greater than 75 µM, the GI50 (OVCAR-5; read-out: pGI50 (converted)) was greater than 75.9 µM and the LC50 (OVCAR-5; read-out: pLC50 (converted)) was greater than 75.9 µM. The TGI (OVCAR-5; read-out: pTGI) was greater than 75.9 µM, the growth at 100 µM (786-0) was 88% and the growth at 100 µM (LOX IMVI [5]) was 84%. It also gave a growth at 0.01 µM (NCI-H460) of 102%, a GI50 (HCT-116; read-out: GI50) greater than 75 µM and a CC50 (HCT-116; [14]) greater than 75 µM. For the same molecule, the TGI (HCT-116; read-out: TGI) was greater than 75 µM, the GI50 (HCT-116; read-out: pGI50 (converted)) was greater than 75.9 µM and the CC50 (HCT-116; [15]) was greater than 75.9 µM. It also gave a TGI (HCT-116; read-out: pTGI) greater than 75.9 µM, a growth at 1 µM (T47D [6]) of 107% and a growth at 0.01 µM (IGROV-1) of 99%. It also gave a GI50 (EKVX [7]; read-out: GI50) greater than 75 µM, an LC50 (EKVX [7]; read-out: LC50) greater than 75 µM and a TGI (EKVX [7]; read-out: TGI) greater than 75 µM. It also gave a GI50 (EKVX [7]; read-out: pGI50 (converted)) greater than 75.9 µM, an LC50 (EKVX [7]; read-out: pLC50 (converted)) greater than 75.9 µM and a TGI (EKVX [7]; read-out: pTGI) greater than 75.9 µM. The growth at 0.1 µM (NCI-H226) was 93%, the growth at 0.01 µM (HT-29 [8]) was 102% and the growth at 100 µM (HT-29 [9]) was 100%. It also gave a GI50 (SW-620; read-out: GI50) greater than 75 µM, an LC50 (SW-620; read-out: LC50) greater than 75 µM and a TGI (SW-620; read-out: TGI) greater than 75 µM. It also gave a GI50 (SW-620; read-out: pGI50 (converted)) greater than 75.9 µM, an LC50 (SW-620; read-out: pLC50 (converted)) greater than 75.9 µM and a TGI (SW-620; read-out: pTGI) greater than 75.9 µM. For the same molecule, the growth at 0.1 µM (EKVX [10]) was 98%, the growth at 1 µM (SNB-75) was 80% and the growth at 0.01 µM (T47D [11]) was 99%. The GI50 (MDA-MB-435; read-out: GI50) was greater than 75 µM, the LC50 (50% lethal concentration) (MDA-MB-435; read-out: LC50) was greater than 75 µM and the TGI (MDA-MB-435; read-out: TGI) was greater than 75 µM. For the same molecule, the GI50 (MDA-MB-435; read-out: pGI50 (converted)) was greater than 75.9 µM, the LC50 (50% lethal concentration) (MDA-MB-435; read-out: pLC50 (converted)) was greater than 75.9 µM and the TGI (MDA-MB-435; read-out: pTGI) was greater than 75.9 µM. The growth at 0.01 µM (MCF7 [12]) was 94%, the GI50 (RXF 393; read-out: GI50) was greater than 75 µM and the CC50 (RXF 393; [14]) was greater than 75 µM. It also gave a TGI (RXF 393; read-out: TGI) greater than 75 µM, a GI50 (RXF 393; read-out: pGI50 (converted)) greater than 75.9 µM and a CC50 (RXF 393; [15]) greater than 75.9 µM. It also gave a TGI (RXF 393; read-out: pTGI) greater than 75.9 µM, a growth at 0.1 µM (SF-268 [13]) of 100% and a growth at 0.1 µM (DU-145) of 100%. For the same molecule, the growth at 0.1 µM (NCI/ADR-RES) was 97% and the growth at 0.1 µM (RPMI-8226) was 101%.
